Measured values published in the supplement of paper PMC11208160.

Tests used:
[1] = recombinant barcode read abundance after kanamycin selection (control-corrected) (log10(CPM+1)); higher = more efficient recombination; sequences stand for … in AGTGCAGAGAAAATCGGCCAGTTTTCTCTGCCTGCAGTCCGCATGCCGT…ATTTATGCAGCGGACTGCCTTTCTCCCAAAGTGATAAACCGGACAGTATCATGGACCGGTTTTCCCGGTAATCCGTATTTGCAAGGTTGGTTTCACT; site = the 11-nt target
Description: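 Same pooled E. coli target screen (IS621 bridge recombinase, kanamycin selection, control-corrected CPM, mean of 2 biological replicates). Here the two core-binding nucleotides of the LTG and RTG of the bridge RNA target-binding loop are mutated. Target and donor CT cores are held constant, and the other 9 guide positions match the target. The target is read from the library oligo sequence. Molecule = full bridge RNA written as DNA: nt 1-80 from the library oligo, rest WT scaffold.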

[2] = recombinant barcode read abundance after kanamycin selection (control-corrected) (log10(CPM+1)); higher = more efficient recombination; sequences stand for … in AGTGCAGAGAAAATCGGCCAGTTTTCTCTGCCTGCAGTCCGCATGCCGT…AGATTTATGCAGCGGACTGCCTTTCTCCCAAAGTGATAAACCGGACAGTATCATGGACCGGTTTTCCCGGTAATCCGTATTTGCAAGGTTGGTTTCACT; site = the 11-nt target
How it was run: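 Values are log10(CPM+1) from a pooled E. coli screen of targets paired with IS621 bridge RNA target-binding loops. Recombination efficiency here means counts per million of recombinant-junction barcodes, averaged and control-corrected. Plates were chloramphenicol/ampicillin LB agar for the control and chloramphenicol/ampicillin/kanamycin with 0.1 mM IPTG, two replicates each.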

Row | Sequence | recombinant barcode read abundance (log10) [1] | recombinant barcode read abundance (log10) [2]
1 | AAACACAACTGGGTTCTAACCTGTTGCCTGT [AAACACACTAG_LTGcore_AC_RTGcore_AC] (site AAACACACTAG) (LTG core: AC, RTG core: AC) | 0.0446 | 
2 | AAACACAATTGGGTTCTAACCTGTTGCCTAT [AAACACACTAG_LTGcore_AT_RTGcore_AT] (site AAACACACTAG) (LTG core: AT, RTG core: AT) | 0.209 | 
3 | AAACACACTTGGGTTCTAACCTGTTGCCTCT [AAACACACTAG_LTGcore_CT_RTGcore_AG] (site AAACACACTAG) (LTG core: CT, RTG core: AG) | 2.46 | 
4 | AAACACACTTGGGTTCTAACCTGTTGCCTGA [AAACACACTAG_LTGcore_CT_RTGcore_TC] (site AAACACACTAG) (LTG core: CT, RTG core: TC) | 1.19 | 
5 | AAACACACTTGGGTTCTAACCTGTTGCCTTC [AAACACACTAG_LTGcore_CT_RTGcore_GA] (site AAACACACTAG) (LTG core: CT, RTG core: GA) | 0.477 | 
6 | AAACACACTTGGGTTCTAACCTGTTGCCTTG [AAACACACTAG_LTGcore_CT_RTGcore_CA] (site AAACACACTAG) (LTG core: CT, RTG core: CA) | 0.248 | 
7 | AAACACAGATGGGTTCTAACCTGTTGCCTTC [AAACACACTAG_LTGcore_GA_RTGcore_GA] (site AAACACACTAG) (LTG core: GA, RTG core: GA) | 0.152 | 
8 | AAACACAGCTGGGTTCTAACCTGTTGCCTAG [AAACACACTAG_LTGcore_GC_RTGcore_CT] (site AAACACACTAG) (LTG core: GC, RTG core: CT) | 0.0255 | 
9 | AAACACAGGTGGGTTCTAACCTGTTGCCTAG [AAACACACTAG_LTGcore_GG_RTGcore_CT] (site AAACACACTAG) (LTG core: GG, RTG core: CT) | 0.463 | 
10 | AAACACAGGTGGGTTCTAACCTGTTGCCTCC [AAACACACTAG_LTGcore_GG_RTGcore_GG] (site AAACACACTAG) (LTG core: GG, RTG core: GG) | 0.0137 | 
11 | AAACACATGTGGGTTCTAACCTGTTGCCTAG [AAACACACTAG_LTGcore_TG_RTGcore_CT] (site AAACACACTAG) (LTG core: TG, RTG core: CT) | 0.247 | 
12 | AAACACATTTGGGTTCTAACCTGTTGCCTAA [AAACACACTAG_LTGcore_TT_RTGcore_TT] (site AAACACACTAG) (LTG core: TT, RTG core: TT) | 0.889 | 
13 | AAACAGTAATGGGTTCTAACCTGTTGCCTTT [AAACAGTCTAG_LTGcore_AA_RTGcore_AA] (site AAACAGTCTAG) (LTG core: AA, RTG core: AA) | 0.199 | 
14 | TTCTTTCCTTGGGTTCTAACCTGTTGCCT (site TTCTTTCCTAG) |  | 0.11
15 | TTGACGACTTGGGTTCTAACCTGTTGCCA (site TTGACGACTTG) |  | 0.36
16 | TTGACGACTTGGGTTCTAACCTGTTGCCA (site TTGCCGACTTG) |  | 0.217
17 | TTGACGACTTGGGTTCTAACCTGTTGCCA (site TTGGCGACTTG) |  | 0.116
18 | TTGACGACTTGGGTTCTAACCTGTTGCCA (site TTGTCGACTTG) |  | 0.0686
19 | TTGACGGCTTGGGTTCTAACCTGTTGCCT (site CCATTCCCTTA) |  | 0.041
20 | TTGACGGCTTGGGTTCTAACCTGTTGCCT (site TTGACGGCTAG) |  | 0.165
21 | TTGAGGACTTGGGTTCTAACCTGTTGCCT (site ATGAGGACTAG) |  | 0.0377
22 | TTGAGGACTTGGGTTCTAACCTGTTGCCT (site CTGAGGACTAG) |  | 0.146
23 | TTGAGGACTTGGGTTCTAACCTGTTGCCT (site GTGAGGACTAG) |  | 0

Row | Sequence | recombinant barcode read abundance (log10) [1] | recombinant barcode read abundance (log10) [2]
24 | TTGAGGACTTGGGTTCTAACCTGTTGCCT (site TTGAGGACTAG) |  | 0.606
25 | TTGAGGCCTTGGGTTCTAACCTGTTGCGG (site TCGAGTCCTCC) |  | 0.141
26 | TTGAGGCCTTGGGTTCTAACCTGTTGCGG (site TTGAGGCCTCC) |  | 2.39
27 | TTGAGTGCTTGGGTTCTAACCTGTTGCCT (site TTGAATGCTAG) |  | 0.259
28 | TTGAGTGCTTGGGTTCTAACCTGTTGCCT (site TTGACTGCTAG) |  | 0.0508
29 | TTGAGTGCTTGGGTTCTAACCTGTTGCCT (site TTGAGTGCTAG) |  | 0.804
30 | TTGAGTGCTTGGGTTCTAACCTGTTGCCT (site TTGATTGCTAG) |  | 0.254
31 | TTGATTGCTTGGGTTCTAACCTGTTGCCT (site TTGAATGCTAG) |  | 0.0762
32 | TTGATTGCTTGGGTTCTAACCTGTTGCCT (site TTGACTGCTAG) |  | 0.0306
33 | TTGATTGCTTGGGTTCTAACCTGTTGCCT (site TTGAGTGCTAG) |  | 0.425
34 | TTGATTGCTTGGGTTCTAACCTGTTGCCT (site TTGATTGCTAG) |  | 0.497
35 | TTGCGTGCTTGGGTTCTAACCTGTTGCTT (site TTGCGAGCTAT) |  | 0.27
36 | TTGCGTGCTTGGGTTCTAACCTGTTGCTT (site TTGCGTGCTAA) |  | 0.518
37 | TTGCTAGCTTGGGTTCTAACCTGTTGCGG (site GGAACTACTGT) |  | 0.0762
38 | TTGCTAGCTTGGGTTCTAACCTGTTGCGG (site TTGCTAGCTCC) |  | 1.56
39 | TTGGAAGCTTGGGTTCTAACCTGTTGCCT (site TTGGAAGCTAG) |  | 2.1
40 | TTGGAAGCTTGGGTTCTAACCTGTTGCCT (site TTGGCAGCTAG) |  | 0.0513
41 | TTGGAAGCTTGGGTTCTAACCTGTTGCCT (site TTGGGAGCTAG) |  | 0.541
42 | TTGGAAGCTTGGGTTCTAACCTGTTGCCT (site TTGGTAGCTAG) |  | 2.19
43 | TTGGAGGCTTGGGTTCTAACCTGTTGCCT (site AGCAGTACTTA) |  | 0.0388
44 | TTGGAGGCTTGGGTTCTAACCTGTTGCCT (site TTGGAGGCTAG) |  | 1.45
45 | TTGGATCCTTGGGTTCTAACCTGTTGCCT (site TTGGATCCTAA) |  | 0.382
46 | TTGGATCCTTGGGTTCTAACCTGTTGCCT (site TTGGATCCTAG) |  | 2.31

Row | Sequence | recombinant barcode read abundance (log10) [1] | recombinant barcode read abundance (log10) [2]
47 | TTGGCGCCTTGGGTTCTAACCTGTTGCCT (site TCGGCTCCTAG) |  | 0.0935
48 | TTGGCGCCTTGGGTTCTAACCTGTTGCCT (site TTGGCGCCTAG) |  | 0.529
49 | TTGGGAGCTTGGGTTCTAACCTGTTGCCT (site TTGGAAGCTAG) |  | 0.984
50 | TTGGGAGCTTGGGTTCTAACCTGTTGCCT (site TTGGCAGCTAG) |  | 0.11
51 | TTGGGAGCTTGGGTTCTAACCTGTTGCCT (site TTGGGAGCTAG) |  | 2.26
52 | TTGGGAGCTTGGGTTCTAACCTGTTGCCT (site TTGGTAGCTAG) |  | 0.442
53 | TTGGGCGCTTGGGTTCTAACCTGTTGCCT (site TTGGACGCTAG) |  | 0.0866
54 | TTGGGCGCTTGGGTTCTAACCTGTTGCCT (site TTGGCCGCTAG) |  | 0.154
55 | TTGGGCGCTTGGGTTCTAACCTGTTGCCT (site TTGGGCGCTAG) |  | 0.643
56 | TTGGGCGCTTGGGTTCTAACCTGTTGCCT (site TTGGTCGCTAG) |  | 0.0335
57 | TTGGTCACTTGGGTTCTAACCTGTTGCCT (site TTGGACACTAG) |  | 0.358
58 | TTGGTCACTTGGGTTCTAACCTGTTGCCT (site TTGGCCACTAG) |  | 0.309
59 | TTGGTCACTTGGGTTCTAACCTGTTGCCT (site TTGGGCACTAG) |  | 0.205
60 | TTGGTCACTTGGGTTCTAACCTGTTGCCT (site TTGGTCACTAG) |  | 2.1
61 | TTGGTCGCTTGGGTTCTAACCTGTTGCCT (site TTGGACGCTAG) |  | 0.0736
62 | TTGGTCGCTTGGGTTCTAACCTGTTGCCT (site TTGGCCGCTAG) |  | 1.4
63 | TTGGTCGCTTGGGTTCTAACCTGTTGCCT (site TTGGGCGCTAG) |  | 0.085
64 | TTGGTCGCTTGGGTTCTAACCTGTTGCCT (site TTGGTCGCTAG) |  | 1.71
65 | TTGTAGACTTGGGTTCTAACCTGTTGCCT (site TTGATGACTAG) |  | 0.484
66 | TTGTAGACTTGGGTTCTAACCTGTTGCCT (site TTGTAGACTAG) |  | 1.22
67 | TTGTGTTCTTGGGTTCTAACCTGTTGCTA (site GTGTGTTCTTG) |  | 0.0284
68 | TTGTGTTCTTGGGTTCTAACCTGTTGCTA (site TTGTGTTCTTA) |  | 0.465
